Consider 2 compounds from US9409893B2, “Heteroaryl derivatives and uses thereof” (Jacobus Pharmaceutical Company, Inc., priority 2012, dated 2016).

One data set deals with P. falciparum strain W2. In words: [3H]-hypoxanthine growth inhibition assay, P. falciparum W2. The class given is cell-based. To be noted: Plasmodium falciparum; P. falciparum W2 (resistant to chloroquine and pyrimethamine), [3H]-hypoxanthine incorporation; read-out: W2 IC50. In a few lines: (§1)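 Parasites cultured in human O Rh+ RBCs in RPMI-1640-LPLF (low PABA and folic acid) with 10% human plasma, pH 6.9, 37° C, 5% O2/5% CO2/90% N2. Sorbitol-synchronised ring-stage cultures started at 1% parasitaemia; growth measured as [3H]-hypoxanthine incorporation in hypoxanthine-free medium. Compound stocks 1 mM in DMSO.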

The next data set concerns P. falciparum strain D6. In words: [3H]-hypoxanthine growth inhibition assay, P. falciparum D6. Format: cell-based. To be noted: Plasmodium falciparum; P. falciparum D6 (sensitive to chloroquine and pyrimethamine), [3H]-hypoxanthine incorporation; read-out: D6 IC50. In a few lines: as §1
The next data set deals with hERG potassium channel (Homo sapiens, UniProt Q12809). In words: Whole cell patch clamp of cloned hERG potassium channels expressed in HEK293 cells. The class given is cell-based. The text has this: For in vitro testing, the functional hERG assay using conventional patch clamp electrophysiology is considered the gold standard for assessment of drug interactions with the hERG potassium channel (Yao et al., Br. J. Pharmacol. 2008, 154, 1446-1456). In this assay, hERG channels are expressed in a human embryonic kidney (HEK293) cell line that lacks endogenous IKr.
Sequence of hERG potassium channel (Q12809 whole entry): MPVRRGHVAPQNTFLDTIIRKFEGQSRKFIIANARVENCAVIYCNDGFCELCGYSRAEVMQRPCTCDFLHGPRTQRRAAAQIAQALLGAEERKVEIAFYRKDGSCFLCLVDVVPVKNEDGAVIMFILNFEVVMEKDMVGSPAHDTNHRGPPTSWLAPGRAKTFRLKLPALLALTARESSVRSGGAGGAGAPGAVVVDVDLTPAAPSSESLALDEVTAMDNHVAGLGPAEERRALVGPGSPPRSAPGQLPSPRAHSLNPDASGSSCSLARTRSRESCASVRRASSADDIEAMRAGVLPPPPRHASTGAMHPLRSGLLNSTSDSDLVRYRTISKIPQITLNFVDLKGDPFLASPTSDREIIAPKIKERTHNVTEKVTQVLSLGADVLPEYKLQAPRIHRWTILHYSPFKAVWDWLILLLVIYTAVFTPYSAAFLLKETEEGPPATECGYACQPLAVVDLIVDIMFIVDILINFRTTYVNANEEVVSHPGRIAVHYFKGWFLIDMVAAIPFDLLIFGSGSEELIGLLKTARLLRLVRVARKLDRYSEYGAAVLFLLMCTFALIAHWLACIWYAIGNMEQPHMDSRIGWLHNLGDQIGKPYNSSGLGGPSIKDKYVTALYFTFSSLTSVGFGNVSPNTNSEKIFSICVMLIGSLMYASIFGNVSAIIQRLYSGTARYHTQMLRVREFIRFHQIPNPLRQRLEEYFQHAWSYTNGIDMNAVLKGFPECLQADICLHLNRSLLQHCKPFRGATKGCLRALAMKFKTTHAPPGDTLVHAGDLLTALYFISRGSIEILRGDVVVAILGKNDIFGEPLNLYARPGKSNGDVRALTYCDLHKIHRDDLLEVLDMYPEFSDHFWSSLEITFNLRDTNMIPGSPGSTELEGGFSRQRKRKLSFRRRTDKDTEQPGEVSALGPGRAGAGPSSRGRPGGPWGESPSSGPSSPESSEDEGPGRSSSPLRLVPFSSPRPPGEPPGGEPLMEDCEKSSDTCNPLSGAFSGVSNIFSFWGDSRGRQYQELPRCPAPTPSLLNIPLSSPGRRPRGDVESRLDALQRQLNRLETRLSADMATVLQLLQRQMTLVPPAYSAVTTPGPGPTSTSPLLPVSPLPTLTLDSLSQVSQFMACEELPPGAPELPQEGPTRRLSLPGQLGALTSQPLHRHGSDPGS
The objective of this study was to examine the in vitro effects of test articles on the hERG (human ether-à-go-go-related gene) potassium channel current (a surrogate for IKr, the rapidly activating delayed rectifier cardiac potassium current).
All chemicals used in solution preparation were purchased from Sigma-Aldrich (St. Louis, Mo.) unless otherwise noted and were of ACS reagent grade purity or higher. Stock solutions of the test article and the positive control were prepared in dimethyl sulfoxide (DMSO) and stored frozen. Test article and positive control concentrations were prepared fresh daily by diluting stock solutions into a HEPES-buffered physiological saline (HB-PS) solution (composition in mM): NaCl, 137; KCl, 4.0; CaCl2, 1.8; MgCl2, 1; HEPES, 10; Glucose, 10; pH adjusted to 7.4 with NaOH (prepared weekly and refrigerated until use).
HEK/hERG • Organism: Homo sapiens • Designation: 293 • Tissue: Kidney; Transformed with adenovirus 5 DNA; Transfected with human-ether-a-go-go cDNA • Morphology: Epithelial • Age Stage Embryo • Source Strain: ATCC, Manassas, Va. • Source Substrain ChanTest Corporation, Cleveland, Ohio
HEK293 cells were stably transfected with hERG cDNA. Stable transfectants were selected by coexpression with the G418-resistance gene incorporated into the expression plasmid. Selection pressure was maintained by including G418 in the culture medium. Cells were cultured in Dulbecco's Modified Eagle Medium/Nutrient Mixture F-12 (D-MEM/F-12) supplemented with 10% fetal bovine serum, 100 U/mL penicillin G sodium, 100 μg/mL streptomycin sulfate and 500 μg/mL G418.
All experiments were performed at room temperature. Each cell acted as its own control.
Experiments were performed as outlined in the section entitled Experimental Procedures. Concentrations were selected to evaluate the concentration-response relationship of each test article based on the initial results or the solubility limits in vehicle. Each concentration was tested in at least three cells (n≧3).
Cells were transferred to the recording chamber and superfused with vehicle control solution. Micropipette solution for whole cell patch clamp recordings was composed of (mM): potassium aspartate, 130; MgCl2, 5; EGTA, 5; ATP, 4; HEPES, 10; pH adjusted to 7.2 with KOH. Pipette solution was prepared in batches, aliquoted, stored frozen, and a fresh aliquot was thawed each day. Patch pipettes were made from glass capillary tubing using a P-97 micropipette puller (Sutter Instruments, Novato, Calif.). A commercial patch clamp amplifier was used for whole cell recordings. Before digitization, current records were low-pass filtered at one-fifth of the sampling frequency.
Onset and steady state inhibition of hERG current was measured using a pulse pattern with fixed amplitudes (conditioning prepulse: +20 mV for 2 s; test pulse: −50 mV for 2 s) repeated at 10 s intervals, from a holding potential of −80 mV. Peak tail current was measured during the 2 s step to −50 mV.
Each test article at 10 μM was applied to at least 3 cells (n≧3).
One or more test article concentrations were applied sequentially (without washout between test substance concentrations) in ascending order, to each cell (n≧3). A steady state was maintained for at least 30 s before applying test article or positive control. Peak current was measured until a new steady state was achieved.
Steady state was defined by the limiting constant rate of change with time (linear time dependence). The steady state before and after test article application was used to calculate the percentage of current inhibited at each concentration. […]
(The patch-clamp technique gives a direct electrical read-out from membranes.)

The IC50 is the concentration that gives 50% inhibition. In general, melting point refers to the temperature, or range, at which the solid turns liquid.

SMILES strings stand for the structures.

With `CC(C)(C)NCc1cc(C(C)(C)C)cc(-c2ccc(S(C)(=O)=O)nc2)c1O.Cl` [Example 43, 4-(tert-Butyl)-2-((tert-butylamino)methyl)-6-(6-(methylsulfonyl)pyridin-3-yl)phenol hydrochloride], the melting point was 229 to 232 °C. In addition, in the data set with P. falciparum strain W2, the IC50 is 0.1 µM. Moreover, in the data set with P. falciparum strain D6, the half-inhibitory concentration (IC50) was found to be 0.158 µM.

`CC(C)(C)NCc1cc(C(C)(C)C)cc(-c2ccc(Cl)cc2)c1O` [WR-194,965, 4-(tert-butyl)-2-(tert-butylaminomethyl)-6-(4-chlorophenyl)phenol, reference compound]: the IC50 on hERG potassium channel (HEK293/hERG, patch clamp, read-out: IC50 for the inhibitory effect on hERG potassium current) was found to be 1.1 µM. For the same compound, the “Hill coefficient of hERG inhibition” value at hERG potassium channel (fit of concentration-response data) came to 1.4. Besides, on hERG potassium channel (human, HEK293 cells stably expressing hERG, pH 7.4, 0.3 μM, HEK293/hERG, room temperature, read-out: Mean percentage of hERG current inhibited), the inhibition at 0.3 µM amounted to 12.8%. The inhibition at 1 µM on hERG potassium channel (human, HEK293 cells stably expressing hERG, pH 7.4, 1 μM, HEK293/hERG, room temperature, read-out: Mean percentage of hERG current inhibited) amounted to 47.5%. Also, on hERG potassium channel (human, HEK293 cells stably expressing hERG, pH 7.4, 3 μM, HEK293/hERG, room temperature, read-out: Mean percentage of hERG current inhibited), the inhibition at 3 µM came out at 80.3%. For the same compound, on hERG potassium channel (human, HEK293 cells stably expressing hERG, pH 7.4, 10 μM, HEK293/hERG, room temperature, read-out: Mean percentage of hERG current inhibited), the inhibition at 10 µM was found to be 97.2%.
